From US20240165174A1, “[…]-BASED COMPOSITION AND USES THEREOF FOR R[…]” (priority 2021, published 2024) come the findings set out here.

This assay relates to primary human monocytes. The experiment in a line: Immunomodulation in human monocytes: cytokine/PGE2 release measured by ELISA after 24 h incubation. In kind it is cell-based. The note with it: up to the highest concentration studied (0.68 μg/mL and 0.59 μg/mL respectively). How it is done: Monocyte cell cultures: Primary human monocytes were prepared from the buffy coat of healthy human blood donors using a standardized procedure.
Cells were seeded in 24-well plates at a density of 2200000 cells/well for ELISA measurements. Monocytes were incubated with test elements (5 different concentrations) for 24 h. LPS (10 ng/mL, Salmonella typhimurium SL1181) served as a positive control for cytokine release. After 24 h, supernatants were removed, centrifuged and studied for IL-1β, MCP-1, IL-6, TNF and IL-8 concentrations by ELISA using the manufacturer's protocol (n=6, 3 different donors).
Background: In an ELISA, binding on a coated surface is turned into a signal by an enzyme label.
For `[Se]` [selenium], the “effect on basal cytokine release in human monocytes” value (“effect on basal cytokine release” below) is “Neither selenium, vitamin B6 nor vitamin D3 had any effect”.
Consider `Cc1ncc(CO)c(CO)c1O.Cl` [vitamin B6], for which the “effect on basal cytokine release” value is “Neither selenium, vitamin B6 nor vitamin D3 had any effect”.
As for `C=C1CC[C@H](O)C/C1=C/C=C1\CCC[C@]2(C)[C@@H]([C@H](C)CCCC(C)C)CC[C@@H]12` [vitamin D3, cholecalciferol], the “effect on basal cytokine release” value was “Neither selenium, vitamin B6 nor vitamin D3 had any effect”.
